Data taken from ChEMBL document CHEMBL1149774, “Synthesis of N-(5,7-diamino-3-phenyl-quinoxalin-2-yl)-3,4,5-substituted anilines and N-[4[(5,7-diamino-3-phenylquinoxalin-2-yl)amino]benzoyl]-l-glutamic acid diethyl ester: evaluation of in vitro anti-cancer and anti-folate activities” (Eur J Med Chem, 2008).
Active and inactive are the calls of the source. The rule behind the calls is not given here.

Assays:
[1] = system: NCI-H322M; assay: Growth inhibition of human NCI-H322M cells after 48 hrs by SRB staining method; format: functional
[2] = system: NCI-H460; assay: Growth inhibition of human NCI-H460 cells after 48 hrs by SRB staining method; format: functional; conditions: NCI-H460, 48 h
[3] = system: COLO 205; assay: Growth inhibition of human COLO205 cells after 48 hrs by SRB staining method; format: functional; conditions: COLO 205, 48 h
[4] = system: KM12; assay: Growth inhibition of human KM12 cells after 48 hrs by SRB staining method; format: functional; conditions: KM12, 48 h
[5] = system: SF-539; assay: Growth inhibition of human SF539 cells after 48 hrs by SRB staining method; format: functional; conditions: SF-539, 48 h
[6] = system: LOX IMVI; assay: Growth inhibition of human LOX IMVI cells after 48 hrs by SRB staining method; format: functional
[7] = system: Malme-3M; assay: Growth inhibition of human MALME-3M cells after 48 hrs by SRB staining method; format: functional
[8] = system: M14; assay: Growth inhibition of human M14 cells after 48 hrs by SRB staining method; format: functional; conditions: M14, 48 h
[9] = system: SK-MEL-28; assay: Growth inhibition of human SK-MEL-28 cells after 48 hrs by SRB staining method; format: functional; conditions: SK-MEL-28, 48 h
[10] = system: SK-MEL-5; assay: Growth inhibition of human SK-MEL-5 cells after 48 hrs by SRB staining method; format: functional; conditions: SK-MEL-5, 48 h
[11] = system: UACC-257; assay: Growth inhibition of human UACC257 cells after 48 hrs by SRB staining method; format: functional; conditions: UACC-257, 48 h
[12] = system: OVCAR-8; assay: Growth inhibition of human OVCAR8 cells after 48 hrs by SRB staining method; format: functional; conditions: OVCAR-8, 48 h
[13] = system: SK-OV-3; assay: Growth inhibition of human SKOV3 cells after 48 hrs by SRB staining method; format: functional; conditions: SK-OV-3, 48 h
[14] = system: A498; assay: Growth inhibition of human A498 cells after 48 hrs by SRB staining method; format: functional; conditions: A498, 48 h
[15] = system: MCF7; assay: Growth inhibition of human MCF7 cells after 48 hrs by SRB staining method; format: functional; conditions: MCF7, 48 h
[16] = system: MDA-MB-231; assay: Growth inhibition of human MDA-MB-231 cells after 48 hrs by SRB staining method; format: functional; conditions: MDA-MB-231, 48 h
[17] = system: MDA-MB-435; assay: Growth inhibition of human MDA-MB-435 cells after 48 hrs by SRB staining method; format: functional; conditions: MDA-MB-435, 48 h
[18] = target: T1, Dihydrofolate reductase (Homo sapiens) (UniProt P00374); assay: Inhibition of human dihydrofolate reductase at 10 uM
T1 sequence (whole entry): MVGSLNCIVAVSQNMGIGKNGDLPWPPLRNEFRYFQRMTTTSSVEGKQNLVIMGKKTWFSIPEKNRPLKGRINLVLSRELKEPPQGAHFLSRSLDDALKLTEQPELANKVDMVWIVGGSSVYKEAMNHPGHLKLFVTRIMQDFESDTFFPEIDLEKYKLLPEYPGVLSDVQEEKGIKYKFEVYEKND

[19] = system: A549; assay: Growth inhibition of human A549 cells after 48 hrs by SRB staining method; format: functional; conditions: A549, 48 h
[20] = system: SR; assay: Growth inhibition of human SR cells after 48 hrs by SRB staining method; format: functional
[21] = system: MOLT-4; assay: Growth inhibition of human MOLT4 cells after 48 hrs by SRB staining method; format: functional; conditions: MOLT-4, 48 h
[22] = target: T2, Thymidylate synthase (Lactobacillus casei, UniProt P00469)
T2 sequence (P00469 whole entry): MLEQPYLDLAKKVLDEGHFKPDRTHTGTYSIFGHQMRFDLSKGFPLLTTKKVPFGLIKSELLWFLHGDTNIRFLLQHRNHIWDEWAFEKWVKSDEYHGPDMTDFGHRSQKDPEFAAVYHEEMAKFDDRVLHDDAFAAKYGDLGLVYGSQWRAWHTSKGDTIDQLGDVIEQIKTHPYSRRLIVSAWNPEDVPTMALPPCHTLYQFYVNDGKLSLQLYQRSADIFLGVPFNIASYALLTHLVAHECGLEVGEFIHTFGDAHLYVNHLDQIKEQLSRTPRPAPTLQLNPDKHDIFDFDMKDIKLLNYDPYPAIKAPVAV
Description: Inhibition of Lactobacillus casei thymidylate synthase

[23] = target: Thymidylate synthase (Homo sapiens, UniProt P04818)
Thymidylate synthase (Homo sapiens, UniProt P04818), sequence (P04818 whole entry): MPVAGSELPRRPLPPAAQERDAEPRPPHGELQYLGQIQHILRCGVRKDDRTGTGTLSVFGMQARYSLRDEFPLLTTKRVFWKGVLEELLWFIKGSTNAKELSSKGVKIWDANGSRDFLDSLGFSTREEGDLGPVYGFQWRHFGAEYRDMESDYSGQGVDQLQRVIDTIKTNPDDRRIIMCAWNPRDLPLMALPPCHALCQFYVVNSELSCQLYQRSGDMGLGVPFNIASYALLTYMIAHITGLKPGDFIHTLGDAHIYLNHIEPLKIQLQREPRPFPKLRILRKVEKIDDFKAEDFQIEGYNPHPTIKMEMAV
Description: Inhibition of human thymidylate synthase

[24] = read-out: pLC50 (the source's name) (converted)

Structure (SMILES): Nc1cc(N)c2nc(-c3ccccc3)c(Nc3ccc(Cl)c(Cl)c3)nc2c1
- LC50 [1]: 63.1 µM
- GI50 [2]: 1.58 µM
- LC50 (concentration killing 50% of cells) [2]: 56.2 µM
- TGI ([2]; read-out: pTGI (converted)): 22.9 µM
- GI50 [3]: 11.7 µM
- LC50 [3]: 85.1 µM
- TGI ([3]; read-out: pTGI (converted)): 31.6 µM
- GI50 [4]: 5.89 µM
- LC50 [4]: 87.1 µM
- TGI ([4]; read-out: pTGI (converted)): 24.5 µM
- GI50 [5]: 17 µM
- LC50 [5]: 72.4 µM
- TGI ([5]; read-out: pTGI (converted)): 35.5 µM
- GI50 [6]: 4.37 µM
- LC50 [6]: > 100 µM
- TGI ([6]; read-out: pTGI (converted)): > 100 µM
- GI50 [7]: 10.2 µM
- LC50 [7]: 57.5 µM
- TGI ([7]; read-out: pTGI (converted)): 24.5 µM
- GI50 [8]: 14.8 µM
- LC50 [8]: > 100 µM
- TGI ([8]; read-out: pTGI (converted)): 60.3 µM
- GI50 [9]: 16.2 µM
- CC50 [9, 24]: > 100 µM
- TGI ([9]; read-out: pTGI (converted)): 44.7 µM
- GI50 [10]: 11 µM
- LC50 [10]: 58.9 µM
- TGI ([10]; read-out: pTGI (converted)): 25.7 µM
- GI50 [11]: 11.5 µM
- LC50 [11]: 69.2 µM
- TGI ([11]; read-out: pTGI (converted)): 28.2 µM
- GI50 [12]: 5.13 µM
- CC50 [12, 24]: > 100 µM
- TGI ([12]; read-out: pTGI (converted)): 79.4 µM
- GI50 [13]: 13.8 µM
- CC50 [13, 24]: 70.8 µM
- TGI ([13]; read-out: pTGI (converted)): 31.6 µM
- GI50 [14]: 12 µM
- CC50 [14, 24]: 57.5 µM
- TGI ([14]; read-out: pTGI (converted)): 26.3 µM
- GI50 [15]: 5.01 µM
- CC50 [15, 24]: 75.9 µM
- TGI ([15]; read-out: pTGI (converted)): 20.9 µM
- GI50 [16]: 5.75 µM
- CC50 [16, 24]: > 100 µM
- TGI ([16]; read-out: pTGI (converted)): 27.5 µM
- GI50 [17]: 2.14 µM
- CC50 [17, 24]: 9.77 µM
- TGI ([17]; read-out: pTGI (converted)): 45.7 µM
- Activity [18]: inactive
- GI50 [19]: 10.7 µM
- CC50 [19, 24]: > 100 µM
- TGI ([19]; read-out: pTGI (converted)): 34.7 µM
- GI50 [20]: 2.57 µM
- CC50 [20, 24]: > 100 µM
- TGI ([20]; read-out: pTGI (converted)): 15.5 µM
- GI50 [21]: 4.07 µM
- CC50 [21, 24]: > 100 µM
- TGI ([21]; read-out: pTGI (converted)): > 100 µM
- Ki [22]: 1 µM
- Ki [23]: 0.9 µM
